According to patent publication EP0032708A1, “Tryptophan derivative, process for preparing same and a pharmaceutical composition containing such derivative” (Tanabe Seiyaku Co., Ltd., priority 1980, dated 1981):

Columns and labels:
male SD rats = test: Hypolipidemic activity (test compound in diet of rats for one week; serum lipids and liver weight); type: in vivo; details: test compound 0.10 w/w % in diet for one week
Protocol: (i) Hypolipidemic activity:
A test compound (0.10 w/w %) was added to a commercial diet, and male SD rats (body weight: 120 - 140 g , a group of 6 rats) were maintained on the diet for one week. After the experimental period, blood was collected from the tail vein of the rats under ether anesthesia. Thereafter, the liver was excised and weighed. Serum cholesterol and serum triglyceride were measured according to the methods of Zak (Amer. J. Clin. Pathol., Vol. 24, page 1307 (1954)) and Van Handel Zilversmit (J. Lab. & Clin. Med., Vol. 50, page 152 (1957)), respectively. Then, the increase (%) in liver weight and the decrease (%) in serum cholesterol or triglyceride were calculated according to the following formulae: [formula] [formula]

rat brain homogenate = test: Preventive effect on lipid peroxide formation (thiobarbituric acid colorimetric method); type: biochemical; details: 10 % rat brain homogenate, pH 7.4, 30-minute incubation at 37°C
Protocol: (ii) Preventive effect on lipid peroxide formation: An ethanol solution containing 10^-3 or 10-^4 M of a test compound was added to a mixture of 2.4 ml of 0.067 M potassium phosphate buffer solution (pH 7.4) and 0.5 ml of 10 % rat brain homogenate to adjust the final volume of the mixture to 3 ml. After 30-minute incubation of the mixture at 37°C, one ml of 20 % trichloroacetic acid was added thereto, and lipid peroxide formation was determined by the thiobarbituric acid colorimetric method (J. Robak et al., Viochem. Pharmacol., Vol. 25, page 2233 (1976). Suppression (%) of lipid peroxide formation of the test compound was calculated according to the following formula: [formula] • Note: ^* : group containing the test compound ^** : group containing an equal volume of ethanol instead of the test compound solution ΔOD was calculated as [(optical density measured at 532 nm) - (optical density measured at 600 nm)]

Row | Increase (%) in liver weight (male SD rats) [%] | SMILES | Decrease (%) in serum triglyceride (male SD rats) [%] | Decrease (%) in serume cholesterol (male SD rats) [%] | Suppression (%) in lipid peroxide formation (rat brain homogenate; Dose 10^-3M, 1000 µM) [%] | Suppression (%) in lipid peroxide formation (rat brain homogenate; Dose 10^-4M, 100 µM) [%]
1 | 14 | CCOC(=O)C(C)(C)Oc1ccc(Cl)cc1 [Clofibrate, 2-(4-chlorophenoxy)-2-methylpropanoic acid ethyl ester, reference compound] | 34 | 26 | 24.3 | 0.5
2 | 5 | Cn1cc(C[C@H](NC(=O)SCc2ccccc2)C(=O)O)c2ccccc21 [N^1-methyl-Hα-benzylthiocarbonyl-L-tryptophan] | 30 | 15 | 65.2 | 9.0
3 | 0 | Cc1ccc(CSC(=O)N[C@@H](Cc2c[nH]c3ccccc23)C(=O)O)cc1 [Nα-(4-methylbenzylthiocarbonyl)-L-tryptophan] | 48 | 14 | 72.7 | 10.2
